From patent US7651661B2, “Medical devices with broad spectrum antimicrobial activity” (Board of Regents, the University of Texas System, priority 2001, dated 2010)

Test system: PS4205 (Pseudomonas aeruginosa)
Experiment: Zones of inhibition of impregnated devices, modified Kirby-Bauer technique
Format: cell-based
Method: Potassium tert-butoxide in THF, 7.35 ml of 1M solution, was added to a solution of CHX diacetate, 1.533 g; 2.45 mmol in 35 ml THF. The resulting heterogeneous solution was stirred for 20 minutes, then added to a solution GV, 1.0 g; 2.45 mmol, in 30 ml THF (GV used as an example of Triarylmethane Dye). The mixture was stirred at ambient conditions for 1 hour, then placed under the hood overnight to evaporate the solvent. The resulting residue was dissolved in 30 ml DCM (or MeOH). When applicable, the base (such as neutral form of chlorhexidine) is added to a stirring solution of dye (such as GV) in DCM and the resulting mixture is stirred for at least 1 h. With anionic dyes, dissolution is achieved with the addition of at least one equivalent of a quaternary amine (such as tetraethylammonium) prior to addition of the base. One-centimeter device segments were immersed in the DCM solution for the appropriate period, generally PVC and PU for 10 minutes; Silicone (Si) and Silk Suture for 2 hours. The devices were removed from the solution, and traces of solution were removed from the lumen when applicable. The impregnated devices were placed under the hood to dry for at least 4 hours, preferably over night, then washed with distilled water until the washings were colorless or very faint, and finally placed under an aseptic hood to dry under ambient conditions for at least 4 hours, preferably overnight.
The antimicrobial activity of impregnated catheters was evaluated in duplicate by a modified Kirby-Bauer technique. BBL Mueller Hinton II agar plates (obtained from Fisher Scientific) were inoculated with 0.5 McFarland of the appropriate microorganism (hospital isolates from the MD Anderson Cancer Center). Then 10 mm segments of impregnated devices were embedded in the inoculated plates and placed in an incubator at about 37° C. for at least 18 hours. Zones of inhibition were measured perpendicular to the long axis of the device. Bioactivity against yeast constituted of two zones; a large outer zone of partial growth inhibition, and an inner smaller zone of complete inhibition. […]

[1] = PVC and silicone (Si) devices impregnated with the reagent alone

Structure (SMILES) | activity against Pseudomonas aeruginosa [1] | activity against Pseudomonas aeruginosa (after impregnating the surfaces of various polymers, including polyvinylchloride)
[H]/N=C(\N/C(=N/[H])NCCCCCCNC(=N)NC(=N)Nc1ccc(Cl)cc1)Nc1ccc(Cl)cc1 [CHX, chlorhexidine] | no activity | –
CN(C)c1ccc(C(=C2C=CC(=[N+](C)C)C=C2)c2ccc(N(C)C)cc2)cc1 [GV, Gentian violet] | no activity | no activity
